Target: WT HIV-1 protease (Human immunodeficiency virus type 1 group M subtype B (isolate HXB2) (HIV-1), UniProt P04585)
Assay: Assay for inhibition of microbial expressed HIV protease (Procedure A, peptide substrate, HPLC fluorescence detection)
Format: biochemical
Conditions: WT HIV-1 protease 10 pM, substrate 400 micromolar, pH 5.5, 30 min preincubation, 1 hour at 30° C.; read-out: Enzyme inhibition IC50
Procedure: The inhibition of WT HIV-1 protease was studied using the reaction of the protease (expressed in Eschericia coli) with a peptide substrate [Val-Ser-Gln-Asn-(betanaphthyl)Ala-Pro-Ile-Val (SEQ ID NO:1)]. Compounds were tested using Procedure A. In Procedure A, the test compound was first preincubated with the enzyme in assay buffer (50 mM sodium acetate, pH 5.5, 100 mM NaCl, and 0.1% BSA) for 30 minutes at room temperature. Substrate was then added to 400 micromolar in a total volume of 80 microliters containing 10 picomolar HIV-1 protease and the reaction was incubated for 1 hour at 30° C. The reaction was quenched with the addition of 120 microliters of 10% phosphoric acid. The product formation was determined after separation of product and substrate on a Zorbax Eclipse XDB-C18 column (Agilent Technologies, Santa Clara, Calif.) connected to an Agilent 1100 high performance liquid chromatography system with fluorescence detection (excitation 270 nanometer and emission 330 nanometer).

Structure (SMILES)	IC50 [nM]
COC(=O)N[C@H](C(=O)N[C@H](c1ccc([C@@H](CO)N(CCC(C)(C)C)S(=O)(=O)c2ccc(N)cc2)s1)C(F)(F)F)C(c1ccccc1)c1ccccc1 [Example 44, N-[(1S)-1-{5-[(1R)-1-{[(4-aminophenyl)sulfonyl](3,3-dimethylbutyl)amino}-2-hydroxyethyl]thiophen-2-yl}-2,2,2-trifluoroethyl]-Nα-(methoxycarbonyl)-β-phenyl-L-phenylalaninamide]	0.196
[2H]C([2H])([2H])C(N([C@H](CO)c1ccc([C@@H](NC(=O)[C@@H](NC(=O)OC)C(c2ccccc2)c2ccccc2)C(F)(F)F)s1)S(=O)(=O)c1ccc(N)cc1)C([2H])([2H])[2H] [Example 47, N-[(1S)-1-{5-[(1R)-1-{[(4-aminophenyl)sulfonyl][(1,1,1,3,3,3-^2H6)propan-2-yl]amino}-2-hydroxyethyl]thiophen-2-yl}-2,2,2-trifluoroethyl]-Nα-(methoxycarbonyl)-β-phenyl-L-phenylalaninamide]	33.7
COC(=O)N[C@H](C(=O)N[C@H](c1ccc([C@@H](CO)N(C(C)C)S(=O)(=O)c2ccc(N)s2)s1)C(F)(F)F)C(c1ccccc1)c1ccccc1 [Example 50, N-[(1S)-1-{5-[(1R)-1-{[(5-aminothiophen-2-yl)sulfonyl](propan-2-yl)amino}-2-hydroxyethyl]thiophen-2-yl}-2,2,2-trifluoroethyl]-Nα-(methoxycarbonyl)-β-phenyl-L-phenylalaninamide]	121
COC(=O)N[C@H](C(=O)N[C@H](c1ccc([C@@H](CO)N(CCC(C)(C)C)S(=O)(=O)c2ccn3ccnc3c2)s1)C(F)(F)F)C(c1ccccc1)c1ccccc1 [Example 51, N-[(1S)-1-(5-{(1R)-1-[(3,3-dimethylbutyl)(imidazo[1,2-c]pyridin-7-ylsulfonyl)amino]-2-hydroxyethyl}thiophen-2-yl)-2,2,2-trifluoroethyl]-Nα-(methoxycarbonyl)-β-phenyl-L-phenylalaninamide]	17.5
COC(=O)N[C@H](C(=O)N[C@H](c1ccc([C@@H](CO)N(CCC(C)(C)C)S(=O)(=O)c2cc(F)c(CO)c(F)c2)s1)C(F)(F)F)C(c1ccccc1)c1ccccc1 [Example 52, N-[(1S)-1-(5-{(1R)-1-[{[3,5-difluoro-4-(hydroxymethyl)phenyl]sulfonyl}(3,3-dimethylbutyl)amino]-2-hydroxyethyl}thiophen-2-yl)-2,2,2-trifluoroethyl]-Nα-(methoxycarbonyl)-β-phenyl-L-phenylalaninamide]	2
COC(=O)N[C@H](C(=O)N[C@H](c1ccc([C@@H](CO)N(CCC(C)(C)C)S(=O)(=O)c2ccc(CO)cc2)s1)C(F)(F)F)C(c1ccccc1)c1ccccc1 [Example 53, N-[(1S)-1-(5-{(1R)-1-[(3,3-dimethylbutyl){[4-(hydroxymethyl)phenyl]sulfonyl}amino]-2-hydroxyethyl}thiophen-2-yl)-2,2,2-trifluoroethyl]-Nα-(methoxycarbonyl)-β-phenyl-L-phenylalaninamide]	0.156
COC(=O)N[C@H](C(=O)N[C@H](c1ccc([C@@H](CO)N(CCC(C)(C)C)S(=O)(=O)c2cc3ccccc3[nH]2)s1)C(F)(F)F)C(c1ccccc1)c1ccccc1 [Example 55, N-[(1S)-1-(5-{(1R)-1-[(3,3-dimethylbutyl)(1H-indol-2-ylsulfonyl)amino]-2-hydroxyethyl}thiophen-2-yl)-2,2,2-trifluoroethyl]-Nα-(methoxycarbonyl)-β-phenyl-L-phenylalaninamide]	45.8
COC(=O)N[C@H](C(=O)N[C@H](c1ccc([C@@H](CO)N(CCC(C)(C)C)S(=O)(=O)c2ccc(CO)c(C(F)(F)F)c2)s1)C(F)(F)F)C(c1ccccc1)c1ccccc1 [Example 56, N-[(1S)-1-(5-{(1R)-1-[(3,3-dimethylbutyl){[4-(hydroxymethyl)-3-(trifluoromethyl)phenyl]sulfonyl}amino]-2-hydroxyethyl}thiophen-2-yl)-2,2,2-trifluoroethyl]-Nα-(methoxycarbonyl)-β-phenyl-L-phenylalaninamide]	59.4
